Patent publication US20150307573A1, “CYLINDRINS AS ETIOLOGIC AGENTS OF AMYLOID DISEASES” (The Regents of the University of California, priority 2012, published 2015)
Like-named read-outs stand apart in the source and are kept apart here. Where no end group is shown, it is not given here.

Experiments:
[1] = test system: HeLa, HEK293, PC-12 and SH-SY5Y cells
[2] = Membrane leakage (liposome calcein dye-release) experiments; type: biochemical; conditions: for maximum leakage (calcein release): 5, 20, 50 μM peptide, up to 30 hours; for liposome integrity / dye release: FIG. 8
Protocol: Calcein-containing LUVs were prepared as described previously (19), with minor modifications. 1-palmitoyl-2-oleoyl-sn-glycero-3-phosphocholine (POPC) and 1-palmitoyl-2-oleoyl-sn glycero-3-phospho-L-glycerol (POPG) were obtained from Avanti Polar Lipids (Alabaster, Ala.). Mixtures of POPC and POPG in a 7:3 molar ratio were dissolved in 1:1 chloroform:methanol. The solvent was evaporated under dry nitrogen gas to yield a lipid film that was further dried under vacuum for at least 24 hours to remove any residual organic solvent. The film was then hydrated in 70 mM calcein (Sigma Aldrich, St. Louis, Mo.) and 10 mM Tris-HCl (pH 7.4) at a lipid concentration of 5 mM. The suspensions were subjected to 10 freeze-thaw cycles of temperatures of −80 and 50° C., followed by extrusion through two 0.2 μm pore size filters (Whatman, Florham Park, N.J.). Non-encapsulated calcein was separated from calcein-filled LUVs by size exclusion using a Sephadex G-75 (GE Healthcare, Piscataway, N.J.) equilibrated in buffer (10 mM Tris-HCl pH 7.4, 100 mM sodium chloride). The calcein-containing LUVs were concentrated to 3-5 mM and stored at 4° C. Phospholipid content and concentrations of the LUVs were determined by RP-HPLC using 100% Methanol and 100 mM TEAC (tetraethylammonium chloride) pH 7.8 as the solvent and a C18 column. Diameter of LUVs were determined using a Microtrac UPA 150 (York, Pa.). […] LUVs were used for experiments within 5 days of preparation.
Pure, lyophilized K11V-TR and K11VV2L-TR peptides were solubilized in water. Three different stock solutions were made at concentrations of 0.2, 0.8, and 2 mM. 5 uL of each peptide stock solution was added to a well containing 195 uL of 7:3 calcein-containing POPC:POPG LUVs in a buffer (10 mM Tris-HCL pH 7.4, 100 mM sodium chloride). Dye leakage was measured using a SpectraMax5 (Molecular Devices, Sunnyvale, Calif.) at 485 nm excitation and a 535 nm emission. Measurements were taken every 10 minutes for 30 hours. Each well contains a final LUV concentration of 100 μM with final K11V-TR and K11VV2L-TR construct concentrations of 5, 20, and 50 μM. Synthetic human Islet Amyloid Polypeptide (hIAPP) residues 8-37, purchased from CS-Bio (Menlo Park, Calif.), was used as a positive control; since hIAPP has been previously shown to interact and disrupt membranes (15, 16). Lyophilized hIAPP was dissolved in 100% hexafluoro-2-propanol (HFIP) and put under vacuum to evaporate the HFIP. hIAPP was then reconstituted in water at 0.2 mM, filtered using a 0.2 μm filter, and added to six wells containing 100 μM Calcein-containing LUVs to a final concentration of 5 μM hIAPP. Fluorescence at a given time point was normalized as described previously (20), using the equation: Fnormalized=(Ft−Fmin)/(Fmax−Fmin) Ft is the measured fluorescence intensity, Fmin the fluorescence of 100 μM calcein-containing LUVs alone, and Fmax is the maximum fluorescence determined by incubation of 100 μM LUVs in the presence of 0.5% Triton X-100.

[3] = test system: polyclonal antibody A11; assay: Immuno-dot blot with oligomer-specific antibody A11; type: binding
Protocol: (§1) Briefly, a small aliquot of cylindrin peptide samples, at a concentration of a few mg/mL, were spotted onto a nitrocellulose membrane (Trans-Blot, Bio-Rad, Hercules, Calif.). After blocking with 10% fat free milk in TBST buffer (50 mM Tris, 150 mM NaCl, 0.05% Tween20), the membranes were incubated with polyclonal antibody or monoclonal antibody (˜1:250 dilution in 5% fat free milk, TBST buffer) at room temperature for 1 hour. The membranes were washed three times in TBST buffer before incubating with anti-rabbit HRP-linked antibody (1:5000 dilution in 5% fat free milk, TBST buffer) (Invitrogen, Carlsbad, Calif.) at room temperature for 1 hour. After washing the membranes three times in TBST buffer, the films were developed following the protocol as described in the Kit (Thermo Scientific Pierce ECL Western Blotting Substrate, #32209). Positive controls for A11 and OC were prefibrillar oligomers and fibrils, respectively (14).

[4] = test system: OC antibody; assay: Immuno-dot blot with fibril-specific antibodies OC; type: binding
Protocol: as §1

[5] = in vitro; conditions: human (HeLa, HEK293, SH-SY5Y); rat (PC-12)
[6] = test system: Hela; ES derived motor neurons (GFP+); assay: Toxicity assay of SOD1 cylindrins (MTT, visual inspection of GFP+ neuron morphologies); type: cell-based
[7] = target: the molecule itself; assay: native nanoelectrospray mass spectrometry; self-association of identical chains
Protocol: The cylindrin peptide abbreviation (see Table 1) is labeled for the respective mass spectrum in the upper right corner of the inset. (A) Mass spectrum of cylindrin peptide, K11VV2L dissolved directly in 200 mM ammonium acetate buffer. Expansion of the hexameric oligomers with n-1 and n-2 dissociation products (see for review (13)), shown in inset. […] The n-1 (pentamer) and n-2 (tetramer) dissociated species are located under the respective label, corresponding to ions with +4 and +3 charge states, respectively. The 1231.76 ion corresponds to the K11VV2L peptide chain with a +1 charge state. (B) Native mass spectrum of K11V-TR purified by size exclusion chromatography (see methods for details). […] The labeled +2 and +6 charge state ions correspond to one and four peptide chains, respectively. […]
One to five milligrams of lyophilized peptide was dissolved in 1 mL of water and filtered through a 0.22 or 0.45 μm Centrex MF filter (Whatman, Florham Park, N.J.). […] Absorbance at 220 nm and 280 nm were recorded using a Waters 2487 dual λ absorbance detector (Waters, Milford, Mass.). Protein standards were monitored by absorbance at 280 nm, and cylindrin peptides monitored by absorbance at 220 nm.

[8] = target: the molecule itself; assay: X-ray crystal structure; self-association of identical chains
Protocol: The SOD1-derived peptide […] (SEQ ID NO:61) was crystallized and data collection was performed as follows: The peptide was crystallized via hanging-drop vapor diffusion at 18° C. The peptide was dissolved at 50 mg/mL in 50 mM Tris, then was mixed 1:1 with the reservoir solution: 0.2M Na Citrate pH 5, 13% PEG 6000. The peptide grew into needle-shaped crystals in 2-3 days. For data collection, hundreds of crystals were mounted because of their quick decay. However, two larger crystals were able to be used to collect complete data sets, by diffracting from several points along the length of the crystals. Diffraction from iodine-soaked crystals was used to obtain phases by SIRAS.

GKLKVLGDVIEVGGKLKVLGDVIEV [Peptide K11V-TR, tandem repeat of K11VV2L, double glycine linker, additional N-terminal glycine]
cell toxicity ([1]; different peptide concentrations, HEK293, HeLa, PC12, SH-SY5Y, FIG. 7): concentration dependent cell toxicity
cell toxicity (cell viability) ([1]; final concentration 100 μM, four mammalian cell lines, FIG. 1F): toxic
maximum leakage (calcein release) ([2]; 100 μM LUVs): 10%
liposome integrity / dye release [2]: did not exhibit this trend
recognition by A11 antibody [3]: recognized by A11

GDVIEV [G6V fibrils]
toxicity of fibrils ([1]; fibrils, in contrast to oligomeric solutions): no toxicity

cylindrin: six-stranded anti-parallel barrel oligomer of K11V (KVKVLGDVIEV)
recognition by A11 antibody [3]: recognizes

GKLKVLGDVIEVGGKLKVLGDVIEV [K11V-TR fibrils] (not fully specified)
recognition by OC antibody [4]: recognized only by the OC antibody
recognition by OC antibody ([4]; listed as fibrils of K11V-TR): immunoreactive
recognition by A11 antibody [3]: recognized only by the OC antibody

H-GKLKWLGDVIEVGGKLKWLGDVIEV-OH [Peptide K11VV4W-TR]
viability at 24 h, 100 µM [5]: ~100%

GKVKVLGDVIEVGGKVKVLGDVIEV [K11V-TR (wild-type)]
maximum leakage (calcein release) ([2]; 100 μM LUVs): 10%

hIAPP8-37: Synthetic human Islet Amyloid Polypeptide residues 8-37, positive control (ATQRLANFLVHSSNNFGAILSSTNVGSNTY; ends and bridges not checked; UniProt P10997 41-70, looked up, fragment) [reference compound]
leakage (calcein release) ([2]; 5 μM positive control, 100 μM LUVs): up to 60%
liposome integrity / dye release [2]: clearly diminished liposome integrity leading to dye release

KLKVLGDVIEV [Peptide K11VV2L]
recognition by A11 antibody [3]: recognized by A11

KVKVWGSIGKL [KVKVWGSIKGL]
toxicity to cultured cells ([6]; peptide (cylindrin)): toxic
toxicity to cultured cells ([6]; peptide amyloid-like fibrils): non-toxic

B1: K11V-TR tandem repeat cylindrin peptide (tandem repeat of K11VV2L), oligomeric solution (peptide)
peptide: GKLKVLGDVIEVGGKLKVLGDVIEV
notes: Trimer of 25-residue chains (SEC, native MS, crystal structure 3SGR); also called K11VV2L-TR; tandem repeat segment
binding result [7]: binds

B2: K11VV2L cylindrin peptide (KLKVLGDVIEV), oligomeric solution (peptide)
peptide: KLKVLGDVIEV
notes: Forms hexameric oligomers (native MS, crystal structure 3SGP); also called single segment; alphaB crystallin residues 90-100 mutant V91L
binding result [7]: binds

B3: SOD1-derived peptide KVKVWGSIKGL, SOD1(29-39) P29K (peptide)
peptide: KVKVWGSIKGL
notes: Open-ended oligomer (corkscrew), 16 strands per turn, any number of peptide units; also called SOD1 cylindrin; kv11
binding result [8]: binds
